From publication PMC7759686, “Pharmacokinetics and Immunological Effects of Romidepsin in Rhesus Macaques” (Frontiers in Immunology, 2020)

Legend:
[1] = penetration into CSF; cited from earlier work
Description: The brain is also a key HIV reservoir ([71]–[73]). […] At 2 h postinfusion, the plasma concentration was 19.9 ng/ml (37.6nM). Assuming a 2% penetration, this would h ...

[2] = tested on: PBMCs; test: In vitro RMD impact on cell surface markers of PBMCs; assay type: cell-based, rhesus macaques; settings: for CD3 expression (% of cells) on PBMCs: n = 3
Description: (§1) To assess the RMD impact on the expression of cellular and homing markers, fresh PBMCs collected from 3 SIV-naïve RMs were subjected to either no RMD treatment or escalating doses of RMD (2, 10, and 20 ng/ml). The PBMCs were incubated with RMD in RPMI1640 supplemented with 1% Penicillin/Streptomycin, 1% HEPES buffer, 1% L-glutamine, and 5% heat-inactivated bovine calf serum for 0, 1, 2, or 5 days. PBMCs were then stained with CD3-V500, CD4-Alexa Flour 700 (L200), CD8-PE-CF594, CCR4-PE-Cy7 (1G1), CCR5-APC (3AP), CCR7-PE (3D12), CCR9-FITC (112509) (R&D Systems, Minneapolis, MN, USA), β7-PE-Cy5 (FIB504), and LIVE/DEAD Fixable Blue Dead Cell Stain Kit (Thermo Fisher Scientific); all antibodies were from BD Biosciences unless otherwise noted. Stained PBMCs were acquired on a LSR-II and data were analyzed with FlowJo software (TreeStar).

[3] = tested on: peripheral CD4+ and CD8+ T cells; test: Apoptosis and activation of peripheral T cells (whole blood flow cytometry); assay type: in vivo, rhesus macaques (Macaca mulatta); settings: n = 3
Description: Whole blood was stained to monitor the impact of RMD on the immune cell populations. TruCount was used to determine absolute counts of CD3^+, CD4^+, CD8^+ T cells and CD20^+ B cells as described ([51]–[53]). Fifty microliters of whole blood were stained with antibodies against CD3-V450, CD4-APC, CD20-APC-H7, and CD45-PerCP in TruCount tubes (BD Biosciences, Franklin Lakes, NJ, USA) with a set number of fluorescent beads as internal standards. CD8^+ T cell counts were assessed through the ratio of CD8^+ to CD3^+ T cells. Whole blood was also stained with combinations of the following fluorescently labeled antibodies: CD3-V450 (SP34-2), CD4-APC (L200), CD8-PE-CF594 (RPA-T8), CD14-PE-Cy7 (M5E2), CD38-FITC (AT-1) (Stemcell, Vancouver, BC, CA), CD20-APC-H7 (2H7), CD69-APC-Cy7 (FN50), CD95-FITC (DX2), CCR5-PE (3A9), Annexin V-FITC, HLA-DR-PE-Cy7 (L243), NKG2A-PE (Z199) (Beckman Coulter, Pasadena, CA), Strepavidin-Alexa Fluor 750 (Life Technologies, Carlsbad, CA), Biotin-CCR7 (eBioscience, San Diego, CA), LIVE/DEAD Fixable Blue Dead Cell Stain Kit (Thermo Fisher Scientific); all antibodies were from BD Biosciences unless otherwise noted. For Ki-67-PE (B56) intracellular staining, cells were fixed and permeabilized prior to Ki-67 staining. Data were acquired with a LSR-II flow cytometer (BD Biosciences) or Fortessa flow cytometer (BD Biosciences) and analyzed with FlowJo software 10.7.0 (Treestar, Ashland, OR), as described ([51], [54]).

[4] = Cortisol ELISA in plasma; assay type: in vivo, rhesus macaques (Macaca mulatta); settings: RMD-infused RMs vs saline controls (peak 6 h, decreasing from day 1); n = 3 per group
Excerpt: Cortisol ELISA. To assess the levels of stress associated with the different animal procedures used, frozen plasma was thawed, and dilutions of either 1:16 to 1:50 were used to measure the circulating cortisol levels with a cortisol ELISA kit (ENZO, Farmingdale, NY, USA), as per manufacturer instructions. The results were read at 405 nm on a Ultrospec 2100 Pro (Amersham Biosciences, Little Chalfont, UK) and results interpolated by Prism 8.4.3 (GraphPad Software, Inc., San Diego, CA) using 4 parameter logistic curve fitting.

[5] = tested on: CD4+ and CD8+ T cells of PBMCs; test: In vitro RMD impact on homing markers of PBMCs; assay type: cell-based, rhesus macaques; settings: for CCR5 expression on CD8+ T cells: untreated 7%; for CCR4 expression on CD8+ T cells: baseline 6%, untreated 29%; for α4β7 expression on CD8+ T cells: baseline 7%; for CCR9 expression on CD4+ T cells: baseline 2%; for CCR9 expression on CD4+ T cells / CCR9 expression on CD8+ T cells: untreated 3%
Description: as §1

[6] = tested on: HIV; settings: cited from earlier work
Excerpt: Because we measured the prodrug form of RMD, it is possible that the maintained concentrations are due to either greater distribution to the tissue compartments, reduced conversion of the RMD to the active, reduced form, trapping of RMD between the extracellular and interstitial spaces, or a combination of these. As ...

[7] = human, in vivo; cited from earlier work

C/C=C1\NC(=O)[C@H]2CSSCC/C=C/[C@H](CC(=O)N[C@H](C(C)C)C(=O)N2)OC(=O)[C@H](C(C)C)NC1=O [RMD, romidepsin]
AUC of CSF/plasma [1]: 2%
CD3 expression (% of cells) on PBMCs ([2]; 2 ng/ml RMD, day 2, baseline 50%, no RMD 66%): 48%
CD3 expression (% of cells) on PBMCs ([2]; 2 ng/ml RMD, day 5, baseline 50%, no RMD 61%): 20%
CD3 expression (% of cells) on PBMCs ([2]; 10 ng/ml RMD, day 2, baseline 50%, no RMD 66%): 30%
CD3 expression (% of cells) on PBMCs ([2]; 10 ng/ml RMD, day 5, baseline 50%, no RMD 61%): 16%
CD3 expression (% of cells) on PBMCs ([2]; 20 ng/ml RMD, day 2, baseline 50%, no RMD 66%): 32%
CD3 expression (% of cells) on PBMCs ([2]; 20 ng/ml RMD, day 5, baseline 50%, no RMD 61%): 19%
CD3 expression (% of cells) on PBMCs ([2]; day 1, all dosage treatments (2, 10, 20 ng/ml)): minimal changes
proportions of CD4− CD8− CD3+ T cells ([2]; with increasing dosages of RMD (2, 10, 20 ng/ml), p < 0.05): increased proportions
frequency of apoptotic CD8+ T cells ([3]; 2 days postinfusion, baseline 2.1%, Annexin V and Live/Dead): 4.6%
frequency of apoptotic CD4+ T cells ([3]; after RMD administration, baseline 3.7%, Annexin V and Live/Dead): 1.8%
expression of T cell activation markers CD69 and Ki-67 on circulating CD4+ and CD8+ T cells ([3]; by 1 day postinfusion, not significant): increased
plasma cortisol levels after infusion [4]: remained elevated through 2 dpi
CCR5 expression on CD4+ T cells ([5]; 2 ng/ml RMD, day 5, baseline 3%, untreated 2%, p > 0.05): 1%
CCR5 expression on CD8+ T cells ([5]; 2 ng/ml RMD, day 5, baseline 4%, p > 0.05): 59%
CCR4 expression on CD8+ T cells ([5]; 2 ng/ml RMD, day 5, p > 0.05): 73%
α4β7 expression on CD8+ T cells ([5]; 2 ng/ml RMD, day 5, p > 0.05): 59%
CCR7 expression on CD8+ T cells ([5]; 10 ng/ml RMD, day 1 (peak), baseline 3%): 6%
α4β7 expression on CD4+ T cells ([5]; 10 ng/ml RMD, day 1, baseline 8%): 9%
α4β7 expression on CD4+ T cells ([5]; 10 ng/ml RMD, day 2, baseline 8%): 16%
CCR9 expression on CD4+ T cells ([5]; 10 ng/ml RMD, day 5 (peak), p > 0.05): 14%
CCR5 expression on CD4+ T cells ([5]; 10 ng/ml RMD, day 5, baseline 3%, untreated 2%, p > 0.05): < 1%
CCR9 expression on CD8+ T cells ([5]; 10 ng/ml RMD, day 5, baseline 4%, p > 0.05): 8%
CCR5 expression on CD8+ T cells ([5]; 10 ng/ml RMD, day 5, baseline 4%, p < 0.05): 93%
CCR4 expression on CD8+ T cells ([5]; 10 ng/ml RMD, day 5, p < 0.05): 93%
α4β7 expression on CD8+ T cells ([5]; 10 ng/ml RMD, day 5, p < 0.05): 95%
α4β7 expression on CD4+ T cells ([5]; 10 ng/ml RMD, day 5, untreated 7.5%): 2%
CCR7 expression on CD8+ T cells ([5]; 20 ng/ml RMD, day 1 (peak), baseline 3%): 6.2%
α4β7 expression on CD4+ T cells ([5]; 20 ng/ml RMD, day 1, baseline 8%): 10%
α4β7 expression on CD4+ T cells ([5]; 20 ng/ml RMD, day 2, baseline 8%): 15%
CCR9 expression on CD4+ T cells ([5]; 20 ng/ml RMD, day 5 (peak), p > 0.05): 13%
CCR7 expression on CD4+ T cells ([5]; 20 ng/ml RMD, day 5 (peak), baseline 4%, untreated 2%, p > 0.05): 9%
CCR5 expression on CD4+ T cells ([5]; 20 ng/ml RMD, day 5, baseline 3%, untreated 2%, p > 0.05): < 1%
CCR9 expression on CD8+ T cells ([5]; 20 ng/ml RMD, day 5, baseline 4%, p > 0.05): 10%
CCR5 expression on CD8+ T cells ([5]; 20 ng/ml RMD, day 5, baseline 4%, p < 0.05): 90%
CCR4 expression on CD8+ T cells ([5]; 20 ng/ml RMD, day 5, p < 0.05): 90%
α4β7 expression on CD8+ T cells ([5]; 20 ng/ml RMD, day 5, p < 0.05): 91%
CCR7 expression on CD8+ T cells ([5]; 20 ng/ml RMD, day 5, untreated 2%): 5%
α4β7 expression on CD4+ T cells ([5]; 20 ng/ml RMD, day 5, untreated 7.5%): 3%
CCR4 expression on CD4+ T cells ([5]; 2, 10, 20 ng/ml RMD, up to day 5): mostly unchanged
concentration found to readily reactivate HIV in vitro [6]: 5 nM
terminal elimination half-life in clinical studies [7]: 6.6 to 19 h
terminal elimination half-life reported in humans [7]: ~ 3.5 h
